Data as given in patent publication US10011602B2, “Immunological reagents and uses therefor” (THE UNIVERSITY OF MELBOURNE, priority 2012, dated 2018).

How the values were obtained:
MR1 = target: T1, MR1 (Homo sapiens, UniProt Q95460); test: Refolding of denatured MR1 and β2m with ligands; type: binding; conditions: substance added to MR1/β2m refold
T1 construct: soluble human MR1 (residues 1-270 of the mature, leaderless protein); made in house
Experimental: Genes encoding soluble human MR1 (residues 1-270 of the mature, leaderless protein, lacking the transmembrane and cytoplasmic domains); or human β2m (mature, leaderless protein) were expressed for four hours in BL21 E. coli following induction with 1 mM isopropyl β-D-1-thiogalactopyranoside. E. coli were pelleted and resuspended in a buffer containing 50 mM Tris, 25% (w/v) sucrose, 1 mM EDTA, 10 mM DTT pH 8.0. Inclusion body protein was then extracted by lysis of bacteria in a buffer containing 50 mM Tris pH 8.0, 1% (w/v) Triton X-100, 1% (w/v) sodium deoxycholate, 100 mM NaCl, 10 mM DTT, 5 mM MgCl2, and 1 mg DnaseI per liter of starting culture; and subsequent steps involved homogenization with a polytron homogenizer, centrifugation, and washing inclusion body protein sequentially with firstly a buffer containing 50 mM Tris pH 8, […], 100 mM NaCl, 1 mM EDTA, 1 mM DTT, and secondly a buffer containing 50 mM Tris pH 8.0, 1 mM EDTA, 1 mM DTT. Inclusion body protein was then resuspended in a buffer containing 20 mM Tris pH 8.0, 8 M urea, 0.5 mM EDTA, 1 mM DTT, and following centrifugation the supernatant containing solubilized, denatured inclusion body protein was collected and stored at −80° C.
2 mg of 6-formyl pterin, 56 mg of denatured inclusion body MR1 protein, and 28 mg of β2m protein were added to a 400 ml refold buffer solution containing 0.1 M Tris pH 8.5, 2 mM EDTA, 0.4 M arginine, 0.5 mM oxidized glutathione, 5 mM reduced glutathione. Variably, 5M urea was either present or absent. Following an overnight incubation at 4° C., the refold buffer was dialysed against 3 changes of buffer containing 10 mM Tris, pH8.0 over a period of 24 hours. Refolded MR1-β2m-ligand complex was then purified by sequential DEAE (GE Healthcare) anion exchange, S75 16/60 (GE Healthcare) gel filtration, and MonoQ (GE Healthcare) anion exchange chromatography.

[1] = Stability of synthesised MR1 Ags; type: physicochemical
From the text: Compounds 6,7-dimethyl-8-D-ribityllumazine (1), 7-hydroxy-6-methyl-8-D-ribityllumazine (2) and a 2 electron reduced form (3) of 6-hydroxymethyl-8-D-ribityllumazine were synthesised by modifications (FIG. 64) to reported literature procedures (for review see Plaut et al 1974). Their purities were established using proton NMR spectra and reversed phase HPLC traces. In brief, D-ribitylamine (6) was produced in 55% yield from D-(−)-ribose via its oxime intermediate. Condensation with 4-chlorouracil (7) followed by nitrosation provided the key intermediate (9) in reasonable yield (27%). The diaminouracil (10) was unstable, and therefore it was generated in situ, immediately before use, by reduction of the nitroso group with sodium hydrosulfite. Condensation with the corresponding α,β-dicarbonyl reagents at the optimal pH under a nitrogen atmosphere in the dark gave the products 1 and 2 after purification by preparative HPLC. […] For dimethyl analogue 1, three equivalents of 2,3-butadione gave a much purer crude product than reported in the literature, in which 6.6 equivalents gave a significant amount of bis-adduct and made purification difficult. […] Thus prolonged reaction and work-up procedures were best avoided. In contrast, a large excess of sodium pyruvate (9-18 eq) was key for efficient production of the 7-hydroxy analogue. […]

T1 sequence (Q95460 23-292): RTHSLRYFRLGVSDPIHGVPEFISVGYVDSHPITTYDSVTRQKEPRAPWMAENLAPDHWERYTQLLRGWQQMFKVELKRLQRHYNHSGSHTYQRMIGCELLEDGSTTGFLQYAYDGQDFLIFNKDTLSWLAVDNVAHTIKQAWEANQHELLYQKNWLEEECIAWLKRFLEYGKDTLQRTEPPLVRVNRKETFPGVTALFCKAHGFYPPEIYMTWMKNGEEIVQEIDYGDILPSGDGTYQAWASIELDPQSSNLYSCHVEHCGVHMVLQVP
T1 sequence (P61769 21-119 partner): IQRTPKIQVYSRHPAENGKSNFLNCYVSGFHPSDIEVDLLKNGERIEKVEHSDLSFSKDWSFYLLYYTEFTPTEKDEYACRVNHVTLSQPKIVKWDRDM

Cc1nc2c(=O)[nH]c(=O)nc-2n(C[C@H](O)[C@H](O)[C@H](O)CO)c1C [Compound 1, 6,7-dimethyl-8-D-ribityllumazine]
Ability to refold MR1 into native MR1-β2m complex (MR1): could be refolded with MR1
Stability [1]: unstable, particularly in solution
